Assay results reported in article PMC3724849 (PLoS ONE, 2013).
Where “and” joins values, the source holds several entries; their conditions need not be identical. Identical values can stand only once.

Assays:
[1] = system: CA1 pyramidal neurons of organotypic hippocampal brain slices; test: Patch clamp of synaptic transmission in organotypic hippocampal slices; format: cell-based, rat
[2] = Pharmacokinetic study after single i.p. injection
[3] = system: excitatory synapses in CA1 of organotypic hippocampal brain slices; test: Synaptic plasticity (LTP, LTD) in organotypic hippocampal slices; format: cell-based, rat; conditions: p<0.05
Protocol: (§1) Interface cultures of hippocampal slices were made from 7–8 day old Sprague Dawley rats as previously described. Briefly, hippocampi were dissected in minimum essential medium (MEM; Invitrogen, Eugene, OR) with 15 mm HEPES and 10 mm Tris buffer (Invitrogen). Four-hundred micrometer slices were cultured on Millicell CM culture plate inserts (Millipore, Temecula, CA). The culture medium consisted of 50% MEM, 25% HBSS, and 25% horse serum, with 12.5 mM HEPES buffer and penicillin (100 U/ml)/streptomycin (100 µg/ml) (all from Invitrogen). Cultures were maintained in 5% CO2, at 37°C. Slices were maintained in vitro for one week prior to transfection.
Patch clamp recordings were made in oxygenated Artificial Cerebrospinal Fluid (ACSF) containing (in mM) 127 NaCl, 2.5 KCl, 1.3 MgSO4, 2.5 CaCl2, 1.25 Na2HPO4, 25 NaHCO3, 25 glucose. For voltage-clamp recordings patch pipette internal solution consisted of 120 Cs-methanesulfonate, 20 CsCl, 0.5 EGTA, 10 HEPES, 2.5 MgCl2, 4 Na2ATP, 0.3 NA3GTP, 10 Phosphocreatine, and 5 mM QX-314 Br. Miniature excitatory postsynaptic currents (mEPSCs) were recorded in the presence of 100 µM Picrotoxin (PTX) and 1 µM tetrodotoxin (TTX) at a holding potential of −70 mV. […] Significance of differences between mean frequencies or amplitudes of mEPSCs or mIPSCs were assessed using a student’s t-test. […]

[4] = Protein binding in plasma and brain; format: in vitro ADME
[5] = system: Tg2576 mice; test: Tg2576 fear conditioning; format: in vivo, mouse; conditions: 25 mg/kg or 50 mg/kg SAHA i.p. daily vs vehicle; p>0.05
[6] = system: CA1 neurons of organotypic hippocampal brain slices; test: Current-clamp intrinsic excitability in organotypic hippocampal slices; format: cell-based, rat; conditions: SAHA vs vehicle treated slices; p>0.05
Protocol: as §1
Patch clamp recordings were made in oxygenated Artificial Cerebrospinal Fluid (ACSF) containing (in mM) 127 NaCl, 2.5 KCl, 1.3 MgSO4, 2.5 CaCl2, 1.25 Na2HPO4, 25 NaHCO3, 25 glucose. For voltage-clamp recordings patch pipette internal solution consisted of 120 Cs-methanesulfonate, 20 CsCl, 0.5 EGTA, 10 HEPES, 2.5 MgCl2, 4 Na2ATP, 0.3 NA3GTP, 10 Phosphocreatine, and 5 mM QX-314 Br. Miniature excitatory postsynaptic currents (mEPSCs) were recorded in the presence of 100 µM Picrotoxin (PTX) and 1 µM tetrodotoxin (TTX) at a holding potential of −70 mV. Miniature inhibitory postsynaptic currents (mIPSCs) were recorded in the presence of 10 µM 2,3-Dioxo-6-nitro-1,2,3,4-tetrahydrobenzo[f]quinoxaline-7-sulfonamide (NBQX), 50 µM D-(−)-2-Amino-5-phosphonopentanoic acid (D-AP5) and 1 µM TTX at a holding potential of 0 mV. Significance of differences between mean frequencies or amplitudes of mEPSCs or mIPSCs were assessed using a student’s t-test. […]. For experiments measuring open NMDAR block synaptic inputs were stimulated locally using a bipolar stimulation electrode and NMDAR EPSCs were isolated using NBQX and PTX and measured at −70 mV with external MgCl2 lowered to 0.5 mM. […] For synaptic plasticity experiments synaptic inputs were stimulated locally using a bipolar stimulation electrode and EPSCs were measured at −70 mV. […] Significance of differences in normalized EPSC amplitudes between treatment groups following plasticity induction were assessed using a student’s t-test. […] Action potential threshold was measured during the smallest depolarizing current injection steps that triggered spiking. Input resistance was calculated from the steady-state response to the smallest hyperpolarizing current injection steps to avoid contamination from hyperpolarization-induced inward currents (h-current). The h-current “sag” was measured based on the difference between the maximal and steady-state voltage responses to strong hyperpolarizing current injection steps. Significance of differences in all measures between treatment groups were assessed using a student’s t-test.

[7] = system: C57BL/6 mice; test: SmartCube high-content behavioral phenotyping; format: in vivo, mouse; conditions: for discrimination index: p<0.001
Protocol: SmartCube experiments were conducted at Psychogenics, Inc (Tarrytown, NY). […] The SmartCube® system can measure numerous spontaneous behaviors and responses to challenges in the same testing environment. The hardware includes force sensors and a number of aversive stimuli used to elicit behavior. Three high-resolution video cameras provide constant 3D view of the mouse in the SmartCube® apparatus throughout the testing period. Digital videos of the subjects were processed with computer vision algorithms to extract over 2,000 independent measures including frequency and duration of behavioral states such as grooming, rearing, etc., and many other features obtained during the test session. […] The database comprises 14 classes of drugs with some of the major classes, such as the antidepressant class, comprising several subclasses with representatives of most of the drugs in the market.

[8] = system: Tg2576 mice; test: Open field test in Tg2576 mice; format: in vivo, mouse; conditions: dosing day 32, 30 minutes, mean ±SEM
[9] = 0.5 µM SAHA for 3–4 days vs vehicle, p>0.05
[10] = single injection, valproate 225 mg/kg

For O=C(CCCCCCC(=O)Nc1ccccc1)NO [SAHA, Suberoylanilide hydroxamic acid], the “median amplitude of mEPSCs” value ([1]; 0.5 µM SAHA for 3–4 days vs vehicle, p<0.05) was “significantly increased”, the “amplitude of mIPSCs” value [1, 9] was “did not significantly alter” and the “frequency of mIPSCs” value [1, 9] was “did not significantly alter”. For the same compound, the “mEPSC frequency (median interval between events)” value [1, 9] was “no significant change”, the “rate of NMDAR EPSC blockade by MK-801” value ([1]; repetitive stimulation, SAHA vs vehicle treated slices, p>0.05) was “not different” and the “AUClast of free SAHA in the brain” value ([2]; 50 mg/kg i.p.) was 0.07 µM·h. For the same compound, the “Cmax of free SAHA in the brain” value ([2]; 50 mg/kg i.p.) was 110 ± 20 nM and 110 nM, the “AUClast of free SAHA in the brain” value ([2]; 150 mg/kg i.p.) was 0.36 µM·h and the “Cmax of free SAHA in the brain” value ([2]; 150 mg/kg i.p.) was 100 ± 10 nM. For the same compound, the LTP induction ([3]; induction protocol subthreshold in vehicle treated slices) was “readily evoked LTP”, the LTD induction ([3]; protocol that readily induced LTD in vehicle treated slices) was “could not produce LTD” and the “bound to protein, brain” value ([4]; brain) was 87.0%. For the same compound, the “bound to protein, plasma” value ([4]; plasma) was 40.7%, the “percentage of time freezing in response to the context, altered context, or cue” value [5] was “no effect of treatment” and the “percentage of time spent freezing during conditioning” value [5] was “no effect of treatment”. For the same compound, the action potential threshold [6] was “unaltered”, the input resistance [6] was “unaltered” and the “membrane sag (hyperpolarization-induced inward current)” value [6] was “unaltered”. For the same compound, the “number of action potentials elicited by 500 ms current injection pulses” value [6] was “no difference”, the behavioral activity ([7]; daily for 14 days, higher dose of SAHA (150 mg/kg)) was “not behaviorally active” and the “drug class activity signature” value ([7]; daily for 14 days, lower dose of SAHA (50 mg/kg)) was “not consistent with any known therapeutic signal”. For the same compound, the behavioral activity ([7]; single injection of 50 mg/kg or 150 mg/kg SAHA) was “behaviorally inactive”, the “total distance traveled in the open field test” value ([8]; 25 mg/kg i.p. daily) was 39.6±6.1 m and the “total distance traveled in the open field test” value ([8]; 50 mg/kg i.p. daily) was 34.2±5.2 m.

In the case of CCCC(CCC)C(=O)O [valproate], the “drug class activity signature” value ([7]; daily for 14 days, valproate) is reported as “predominantly anxiolytic signature”, the discrimination index ([7]; daily for 14 days, valproate) is reported as 98% and the “drug class activity signature” value [7, 10] is reported as “strong anxiolytic signature and a mild psychostimulant signature”. The discrimination index [7, 10] was 100%.
